For experiment [1], the system named is conscious Heidenhain pouch dogs. Description: Gastric acid antisecretory activity, pentagastrin-stimulated acid output. It counts as in vivo. The settings on record: 0.1 mg/kg intravenously, overnight-fasted Heidenhain pouch dogs, lowest acid output after drug vs mean before drug. The procedure: The gastric acid antisecretory activity of compounds of the present invention was determined in overnight-fasted, conscious Heidenhain pouch dogs as follows:
Pentagastrin (Pentavlon-Ayerst) is used to stimulate acid output by continuous infusion into a superficial leg vein at doses earlier determined to stimulate near maximal acid output from the gastric pouch. Gastric juice is collected at 30 minute intervals following the start of a pentagastrin infusion and measured to the nearest 0.1 ml. Ten collections are taken for each dog during an experiment. Acid concentration is determined by titrating 1.0 ml. of gastric juice to pH 7.4 with 0.1N sodium hydroxide using an Autoburette and a glass electrode pH meter (Radiometer).
Drug or vehicle is given intravenously or orally 90 minutes following the start of the pentagastrin infusion, at a dose of 2 mg/kg or less. Gastric acid antisecretory effects are calculated by comparing the lowest acid output after drug administration with the mean acid output immediately before drug.

For experiment [2], the target named is T1, histamine H2-receptor (Cavia porcellus, UniProt P47747).
T1 construct: the heart removed and the right atria dissected free; from tissue; host or cells: guinea pig isolated right atria
T1 sequence (P47747 whole entry): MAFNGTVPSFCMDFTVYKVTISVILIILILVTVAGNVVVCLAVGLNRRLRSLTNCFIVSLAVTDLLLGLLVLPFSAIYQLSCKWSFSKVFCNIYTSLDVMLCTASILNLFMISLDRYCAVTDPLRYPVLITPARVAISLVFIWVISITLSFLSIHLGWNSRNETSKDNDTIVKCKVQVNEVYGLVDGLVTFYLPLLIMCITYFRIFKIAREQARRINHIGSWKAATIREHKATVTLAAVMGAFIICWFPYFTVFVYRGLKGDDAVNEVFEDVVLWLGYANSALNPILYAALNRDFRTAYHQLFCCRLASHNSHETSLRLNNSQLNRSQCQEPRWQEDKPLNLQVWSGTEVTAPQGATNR
The experiment can be described thus: Histamine-H2 antagonist activity in isolated right atria. The class given is cell-based, Guinea pigs. Conditions: guinea pig right atria, histamine dose-response, Krebs-Henseleit buffer pH 7.4, 32°C; read-out: pA2 (converted). As for the experimental part:
The histamine-H2 antagonist activity of compounds of the present invention was determined by the following procedure:
Guinea pigs are killed rapidly with a blow to the head, the heart removed and the right atria dissected free. Atria are suspended, isometrically, in a temperature-controlled (32°±2° C.) tissue bath (10 ml.) containing oxygenated (95% O2; 5% CO2) Krebs-Henseleit buffer (pH 7.4) and are allowed to stabilize approximately one hour during which time the tissue bath is flushed several times. Individual atrial contractions are followed with a force-displacement transducer connected to a cardiotachometer and Grass polygraph recorder. After obtaining a dose-response curve to histamine, the bath containing each atrium is flushed several times with fresh buffer and the atria re-equilibrated to basal rates. Following the return to basal rate, test compounds are added at selected final concentrations and the histamine dose-response curve is again determined in the presence of antagonist. Results are expressed as dose-ratios, the ratio of histamine concentrations required to produce one-half of maximal stimulation in the presence and absence of antagonist, and the apparent dissociation constant of the H2 -receptor antagonist pA2, is determined.

Experiment [3] has as its system male rats. The experiment can be described thus: Inhibition of ethanol-induced ulceration in rats. It counts as in vivo. The settings on record: oral dose of 30 mg/kg, fifteen minutes prior to oral absolute ethanol (1.0 ml); ulcer index vs controls. As for the experimental part: The antiulcer activity of the products of this invention was determined by an ethanol-induced rat ulcer assay. In this test, overnight fasted male rats are given drug (at 30 or 3 mg/kg) or water orally fifteen minutes prior to an orally administered dose of absolute ethanol (1.0 ml.). One hour after the ethanol challenge the animals (8/group) are killed and the stomachs examined for the presence of lesions. After sacrifice the abdomen is opened and a locking hemostat placed at the pylorus. Six ml. of a 4% solution of formaldehyde is injected into the stomach with a gastric feeding tube and a second locking hemostat is used to seal the esophagus. The stomach is removed, opened along the greater curvature and examined for ulceration.
The scoring system used to quantitate the ethanol-induced lesions is given below.
For each group of animals an ulcer index is calculated as follows: EXAMPLE 8 (Cont.)
Ulceration Index=(the sume of the scores of the group)×(the sum of the number of ulcers in the group)×(the fraction of the group havnng any incidence of ulceration).
The percentage inhibition of ulcers is calculated as follows:
% Inhibition=100×[(ulcer index controls) - (ulcer index drug-treated)][…](ulcer index controls).

SMILES strings stand for the structures. Where a name gives a salt, the structure may show the parent alone.

Consider `CCCCCCN(C)Cc1ccc(-c2csc(NC(=N)N)n2)o1` [3 (2HBr salt), 2-Guanidino-4-(5-[N-n-hexyl-N-methylaminomethyl]-2-furyl)thiazole], for which the “inhibition (gastric acid antisecretory effect)” value in experiment [1] is on record as 24%. The Kb in experiment [2] was 100 nM. Besides, the “inhibition of ethanol-induced ulceration” value in experiment [3] is on record as 49%.

Consider `CCCCCCNC(=N)Nc1nc(-c2ccc(CN(C)C)o2)cs1` [4 (2HBr salt), 2-(3-n-Hexylguanidino)-4-(5-[N,N-dimethylaminomethyl]-2-furyl)thiazole], for which the “inhibition (gastric acid antisecretory effect)” value in experiment [1] is reported as 38%. The Kb in experiment [2] is 1000 nM. Also, the “inhibition of ethanol-induced ulceration” value in experiment [3] was 93%.

For the compound `Br.Br.CN(C)Cc1ccc(-c2csc(NC(=N)N)n2)o1` [Example 2, 2-Guanidino-4-(5-[N,N-dimethylaminomethyl]-2-furyl)thiazole Dihydrobromide], in experiment [1], the “inhibition (gastric acid antisecretory effect)” value stood at 44%. For the same compound, the Kb in experiment [2] is 20 nM. Besides, the “inhibition of ethanol-induced ulceration” value in experiment [3] was 7%.

Source of the values: US4814341A, “2-guanidino-4-(2-furyl) thiazoles as antiulcer agents” (priority 1988, dated 1989).
